Data on five molecules can be found in patent US20240238231A1, “EDTA AND EGTA FOR USE IN PRESERVING THE INTEGRITY OF THERAPEUTIC COMPOUNDS” (Axcess (UK) Ltd, priority 2021, published 2024).

In experiment [1] the target is T1, Trypsin from porcine pancreas (Sus scrofa, UniProt P00761).
T1 construct: from tissue; host or cells: porcine pancreas
The experiment in a line: Inhibition of trypsin activity, fluorescence microplate assay with Z-L-arginine-4-methyl-7-coumarinylamide substrate. The note with it: for effect on the activity of trypsin: pH 7, 30 minutes. It counts as biochemical.
Experimental: A dilute solution of phosphate-buffered saline (PBS) was prepared at a concentration of 0.3 mM phosphate (pH7), and used to dissolve calcium chloride dihydrate or magnesium chloride at a concentration of 0.3 mg/ml. Trypsin from porcine pancreas was dissolved in the Ca/PBS buffer, in either the presence or absence of calcium, at a concentration of trypsin at 0.02 mg/ml. 5 ml aliquots of disodium EDTA (dihydrate) solution were prepared in PBS with and without calcium or magnesium at doubling dilutions from 8 mg/ml downwards, and the pH of each solution adjusted to 7. Trypsin substrate (namely Z-L-arginine-4-methyl-7-coumarinylamide HCl) was dissolved in DMSO at a concentration of 0.125 mg/ml, then diluted 100-fold in Ca/PBS buffer. EDTA solutions were dispensed into the wells of a black microplate (60 ul per well) then 10 ul of trypsin solution was added, followed by 10 ul of substrate. The reaction was allowed to proceed for 30 minutes, and the extent of reaction determined in a fluorescence microplate reader by measuring the fluorescence of the reaction product (coumarin) at excitation wavelength 365 nm, emission 440 nm.
A dilute solution of phosphate-buffered saline (PBS) was prepared at a concentration of 0.3 mM phosphate (pH7), and used to dissolve calcium chloride dihydrate at a concentration of 0.3 mg/ml. Trypsin from porcine pancreas was dissolved in the Ca/PBS buffer at a concentration of 0.02 mg/ml trypsin. 5 ml aliquots of disodium EGTA (dihydrate) solution were prepared in PBS at doubling dilutions from 8 mg/ml downwards, and the pH of each solution adjusted to 7. Trypsin substrate (namely Z-L-arginine-4-methyl-7-coumarinylamide HCl) was dissolved in DMSO at a concentration of 0.125 mg/ml, then diluted 100-fold in Ca/PBS buffer. EGTA solutions were dispensed into the wells of a black microplate (60 ul per well) then 10 ul of trypsin solution was added, followed by 10 ul of substrate. The reaction was allowed to proceed for 30 minutes, and the extent of reaction determined in a fluorescence microplate reader by measuring the fluorescence of the reaction product (coumarin) at excitation wavelength 365 nm, emission 440 nm.
A dilute solution of phosphate-buffered saline (PBS) was prepared at a concentration of 0.3 mM phosphate (pH7), and used to dissolve calcium chloride dihydrate at a concentration of 0.3 mg/ml. Trypsin from porcine pancreas was dissolved in the buffer, in either the presence or absence of calcium, at a concentration of 0.02 mg/ml. 5 ml aliquots of disodium EGTA (dihydrate) solution and phenanthroline (Low concentrations of phenanthroline only were employed, because of its limited solubility in aqueous phase) were prepared in PBS with and without calcium at doubling dilutions from 8 mg/ml downwards, and the pH of each solution adjusted to 7. Trypsin substrate (namely Z-L-arginine-4-methyl-7-coumarinylamide HCl) was dissolved in DMSO at a concentration of 0.125 mg/ml, then diluted 100-fold in Ca/PBS buffer. EGTA solutions and phenanthroline were dispensed into the wells of a black microplate (60 ul per well) then 10 ul of trypsin solution was added, followed by 10 ul of substrate. The reaction was allowed to proceed for 30 minutes, and the extent of reaction determined in a fluorescence microplate reader by measuring the fluorescence of the reaction product (coumarin) at excitation wavelength 365 nm, emission 440 nm.

Another experiment has as its system chymotrypsin. Conditions: in the presence of calcium ions only, FIG. 4.
The mark [2] stands for this setting: in combination with / in the presence of calcium (0.3 mg/ml), FIG. 1 and FIG. 3.

Each structure is given as a SMILES string.

T1 sequence (P00761 9-231): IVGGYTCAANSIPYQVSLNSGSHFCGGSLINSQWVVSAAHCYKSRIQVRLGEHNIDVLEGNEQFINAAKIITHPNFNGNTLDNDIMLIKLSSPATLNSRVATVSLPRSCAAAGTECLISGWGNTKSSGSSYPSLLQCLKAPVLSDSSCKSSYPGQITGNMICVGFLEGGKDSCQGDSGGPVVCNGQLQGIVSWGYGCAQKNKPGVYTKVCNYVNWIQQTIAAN
Experimental for chymotrypsin: Experiment 1 was repeated, except that chymotrypsin was employed, instead of trypsin, and the experiment was conducted in the presence of calcium ions only.

For the molecule `O=C(O)CN(CCN(CC(=O)O)CC(=O)O)CC(=O)O` [EDTA], the “effect on the activity of trypsin” value is recorded as “significant inhibitory effect” in experiment [1] (EDTA alone (no calcium or magnesium), doubling dilutions from 8 mg/ml, FIG. 1); “significant inhibitory effect” in experiment [1] (setting [2]); “significant inhibitory effect” in experiment [1] (in combination with magnesium (0.5 mg/ml), FIG. 1). Also, the “effect on the protease activity of chymotrypsin” value in the experiment on chymotrypsin was “inhibitory effect”. On to `O=C(O)CN(CCOCCOCCN(CC(=O)O)CC(=O)O)CC(=O)O` [EGTA], for which, in experiment [1] (EGTA doubling dilutions from 8 mg/ml, presence and absence of calcium ions, FIG. 2), the “effect on the activity of trypsin” value is listed as “inhibitory effect”. On to `O=C(O)CC(O)(CC(=O)O)C(=O)O` [citrate, citric acid, reference compound], for which, in experiment [1] (setting [2]), the “effect on the activity of trypsin” value is “no effect”. Same read-out and setting: for `c1cnc2c(c1)ccc1cccnc12` [phenanthroline, ortho-phenanthroline, reference compound] the value was “no inhibitory effect”. In the case of `[Zn+2]` [zinc], the “effect of the metal ion on inhibition of trypsin by EDTA or EGTA” value in experiment [1] (metal ion combined with EDTA or EGTA, calcium and magnesium show inhibition) was “has no such effect”.
